Experimental findings from patent publication US9309235B2, “SGC stimulators” (IRONWOOD PHARMACEUTICALS, INC., priority 2012, dated 2016) are described below.

The subject of the assay is Guinea pig tracheal smooth muscle. The assay is described as follows: Electrical field stimulated guinea pig tracheal smooth muscle contraction (ex vivo). The conditions noted are these: pooled from three experiments; 95% CI 0.78-0.94; read-out: IC50, inhibition of EFS-induced tracheal smooth muscle contraction. An excerpt:
Animals: Guinea pig, Dunkin Hartley, male, Full barrier-bred and certified free of specific micro-organisms on receipt 525-609 g on the experimental day, Harlan UK Ltd. Guinea pigs were housed in a group of 4 in solid-bottomed cages with Gold Flake bedding in a controlled environment (airflow, temperature and humidity). Food (FD1, Special Diet Services) and water were provided ad libitum.
On each experimental day, a guinea pig was killed by exposure to a rising concentration of CO2 and the trachea removed. The trachea was cleaned of extraneous tissue and cut open longitudinally in a line opposite the muscle, opened out and cut into strips 2-3 cartilage rings wide. […] Tissues were washed with Kreb's buffer and stimulated using the previously determined sub-maximal voltage for 1 hour to establish a stable baseline contraction prior to assessment of compound activity. *“Novel and Versatile Superfusion System. […]
A cumulative dose response curve (DRC) to each test substance was then performed and changes in smooth muscle contraction measured. The effect of each test substance in each experiment was expressed as a percentage inhibition of the baseline contraction, normalized to the relevant vehicle controls. […] The data from all three experiments was pooled, the DRC plotted, and the test substance potency and efficacy determined.

The IC50 is the point on the concentration scale where inhibition reaches its midpoint. As for `CC(C)[N+]1(C)[C@@H]2CC[C@H]1CC(OC(=O)C(CO)c1ccccc1)C2` (stereo partly shown) [Ipratropium bromide], the IC50 was found to be 0.86 nM.
